Assay results taken from the supplement of paper PMC6965134.
± gives the standard deviation of the averaged measurements.

Assay: TIMS collisional cross section (CCS, N2) of the lipid ion; higher = larger ion cross section
Details: ionization mode: positive, one isomer drawn

Row | Structure (SMILES) | TIMS collisional cross section (sample type: Liver) [Å²] | TIMS collisional cross section (sample type: plasma) [Å²] | TIMS collisional cross section (sample type: HeLa) [Å²]
1 | CCCCC/C=C\C/C=C\CCCCCCCC(=O)OC[C@@H](COC(=O)CCCCCCC/C=C\CCCCCCCC)OC(=O)CCCCCCC/C=C\C/C=C\CCCCC [TG 18:1_18:2_18:2] (ion (formula + adduct): [C57H100O6+NH4] 1+) | 322.5 ± 0.14 | 322.17 ± 0.57 | –
2 | CCCCC/C=C\C/C=C\C/C=C\C/C=C\CCCC(=O)OC[C@@H](COC(=O)CCCCCCCCCCCCCCCC)OC(=O)CCCCCCC/C=C\C/C=C\CCCCC [TG 17:0_18:2_20:4] (ion (formula + adduct): [C58H100O6+NH4] 1+) | 326.4 | – | –
3 | CC/C=C\C/C=C\C/C=C\C/C=C\C/C=C\CCCC(=O)OC[C@H](COP(=O)(O)OCCN)OC(=O)CCCCCCCCCCCCCCCCC [PE 20:5_18:0] (ion (formula + adduct): [C43H76NO8P+H] 1+) | 281.4 | – | –
4 | CCCC/C=C\CCCCCCCC(=O)OC[C@H](COC(=O)CCCCCCC/C=C\C/C=C\CCCCC)OC(=O)CCCCCCC/C=C\CCCCCCC [TG 14:1_17:1_18:2] (ion (formula + adduct): [C52H92O6+NH4] 1+) | – | 308.6 | –
5 | CCCCC/C=C\C/C=C\CCCCCCCC(=O)OC[C@H](CO)OC(=O)CCCCCCC/C=C\C/C=C\CCCCC [DG 18:2_18:2_0:0] (ion (formula + adduct): [C39H68O5+NH4] 1+) | 256.6 | 257.1 | –
6 | CCCCCCCCCCCCCC(=O)OC[C@@H](O)COP(=O)([O-])OCC[N+](C)(C)C [LPC 14:0_0:0] (ion (formula + adduct): [C22H46NO7P+H] 1+) | – | 222.55 ± 0.78 | 222.8
7 | CCCC/C=C\CCCCCCCC(=O)OC[C@H](COC(=O)CCCCCCC/C=C\CCCCCC)OC(=O)CCCCCCC/C=C\CCCCC [TG 14:1_15:1_16:1] (ion (formula + adduct): [C48H86O6+NH4] 1+) | 296 | – | 298.2
8 | CCCCCCCCCCCCCCCC(=O)OC[C@@H](COC(=O)CCCCCCCCCCCCC)OC(=O)CCCCCCCCCCCCC [TG 14:0_14:0_16:0] (ion (formula + adduct): [C47H90O6+NH4] 1+) | – | 301.3 ± 0.4 | 301.7
9 | CCCC/C=C\CCCCCCCCCCCC(=O)O[C@H](COC(=O)CCCCCCCCCCCCCCCCCCCCC)COP(=O)(O)OCCN [PE 22:0_18:1@] (ion (formula + adduct): [C45H88NO8P+H] 1+) | – | – | 294.9
10 | CCCCC/C=C\C/C=C\C/C=C\C/C=C\C/C=C\CCC(=O)OC[C@@H](O)COP(=O)(O)OCCN [LPE 22:5] (ion (formula + adduct): [C27H46NO7P+H] 1+) | 221 | 220.3 ± 1.4 | 220.9
11 | CCCCCCCC/C=C\CCCCCCCC(=O)OC[C@H](COP(=O)(O)OCCN)OC(=O)CCCCCCCCC/C=C\CCCCCCCCCC [PE 18:1_22:1] (ion (formula + adduct): [C45H86NO8P+H] 1+) | – | – | 292.4
12 | CCCCCCCC/C=C\CCCCCCCC(=O)OC[C@@H](COC(=O)CCCCCCCCCCCCCC)OC(=O)CCCCCCCCCCCCCCC [TG 15:0_16:0_18:1] (ion (formula + adduct): [C52H98O6+NH4] 1+) | – | 315.47 ± 0.058 | 315.2
13 | CCCCC/C=C\C/C=C\CCCCCCCC(=O)O[C@H](CO/C=C\CCCCCCCCCCCCCCCCCC)COP(=O)(O)OCCN [PE P- 20:0@_18:2] (ion (formula + adduct): [C43H82NO7P+H] 1+) | – | 285 | –
14 | CC/C=C\C/C=C\C/C=C\C/C=C\C/C=C\C/C=C\CCC(=O)OC[C@@H](COC(=O)CCCCCCCCCCC)OC(=O)CCCCCCCCCCCCCCC [TG 12:0_16:0_22:6] (ion (formula + adduct): [C53H90O6+NH4] 1+) | 307.6 | – | –
15 | CCCCC/C=C\C/C=C\C/C=C\C/C=C\C/C=C\CCC(=O)O[C@H](COCCCCCCCCCCCCCCCC)COP(=O)(O)OCCN [PE O- 16:0@_22:5] (ion (formula + adduct): [C43H78NO7P+H] 1+) | – | – | 281.6
16 | CC/C=C\C/C=C\C/C=C\C/C=C\C/C=C\CCCC(=O)OC[C@@H](O)COP(=O)([O-])OCC[N+](C)(C)C [LPC 20:5_0:0] (ion (formula + adduct): [C28H48NO7P+H] 1+) | – | 226.4 | –

Row | Structure (SMILES) | TIMS collisional cross section (sample type: Liver) [Å²] | TIMS collisional cross section (sample type: plasma) [Å²] | TIMS collisional cross section (sample type: HeLa) [Å²]
17 | CC/C=C\C/C=C\C/C=C\C/C=C\C/C=C\CCCC(=O)O[C@H](COC(=O)CCCCCCCCCCCCCCC)COP(=O)([O-])OCC[N+](C)(C)C [PC 16:0@_20:5] (ion (formula + adduct): [C44H78NO8P+H] 1+) | – | 290.6 | –
18 | CCCCCCCCCCCCCCCCCCCCCCCC(=O)OC[C@@H](O)COP(=O)([O-])OCC[N+](C)(C)C [LPC 24:0] (ion (formula + adduct): [C32H66NO7P+H] 1+) | 258.9 | 259.1 | 258.5
19 | CCCCC/C=C\C/C=C\CCCCCCCC(=O)OC[C@@H](COC(=O)CCCCCCCCCCCCCCC)OC(=O)CCCCCCC/C=C\CCCCCCC [TG 16:0_17:1_18:2] (ion (formula + adduct): [C54H98O6+NH4] 1+) | 316 | 317.8 | –
20 | CCCCC/C=C\C/C=C\C/C=C\CCCCC(=O)OC[C@H](COP(=O)([O-])OCC[N+](C)(C)C)OC(=O)CCCCCCC/C=C\CCCCCCCCC [PC 18:3@_19:1] (ion (formula + adduct): [C45H82NO8P+H] 1+) | – | 295 | –
21 | CCCCCCCC/C=C\CCCCCCCCCC(=O)OC[C@@H](COC(=O)CCCCCCCCCCCCCCC)OC(=O)CCCCCCCCCCCCCCCCC [TG 16:0_18:0_20:1] (ion (formula + adduct): [C57H108O6+NH4] 1+) | – | – | 330.3
22 | CCCCCCCC/C=C\CCCCCCCC(=O)O[C@H](COC(=O)CCCCCCCCCCCCCCCCC)COC(=O)CCCCCCCCCCCCCCCCCCCCC [TG 18:0_18:1_22:0] (ion (formula + adduct): [C61H116O6+NH4] 1+) | 342 | 341.9 | 341.8
23 | CCCCCCCCCCCCC/C=C/[C@@H](O)[C@H](COP(=O)([O-])OCC[N+](C)(C)C)NC(=O)CCCCCCCCCCCCCCCCCCCCCCC [SM d18:1_24:0@] (ion (formula + adduct): [C47H95N2O6P+H] 1+) | – | 308.1 | 308.3
24 | CCCCCCCCCCCCCCCC(=O)OC[C@H](COP(=O)([O-])OCC[N+](C)(C)C)OC(=O)CCCCCCCCCCCCCCC [PC 16:0_16:0] (ion (formula + adduct): [C40H80NO8P+H] 1+) | 285.5 | 285.7 ± 0.42 | 286.1
25 | CC/C=C\C/C=C\C/C=C\C/C=C\C/C=C\C/C=C\CCC(=O)OC[C@@H](COC(=O)CCCCCCCCCCCCCCC)OC(=O)CCCCCCC/C=C\CCCCCC [TG 16:0_16:1_22:6] (ion (formula + adduct): [C57H96O6+NH4] 1+) | – | – | 321.4
26 | CCCCCCCCCCCCC(=O)OC[C@@H](COC(=O)CCCCCCCCCCC)OC(=O)CCCCCCCCCCCC [TG 12:0_13:0_13:0] (ion (formula + adduct): [C41H78O6+NH4] 1+) | 282.7 | – | –
27 | CCCCC/C=C\C/C=C\C/C=C\C/C=C\CCCCCC(=O)OC[C@@H](O)COP(=O)(O)OCCN [LPE 22:4] (ion (formula + adduct): [C27H48NO7P+H] 1+) | – | 223.6 | 223.8
28 | CCCCC/C=C\C/C=C\C/C=C\C/C=C\CCCC(=O)O[C@H](COC(=O)CCCCCCCCCCCCCCCCC)COP(=O)(O)OCCN [PE 18:0_20:4] (ion (formula + adduct): [C43H78NO8P+H] 1+) | 284.15 ± 0.49 | 283.5 | –
29 | CCCCCCCCCCCCCCCC(=O)OC[C@@H](COC(=O)CCCCCCCCCCCCCC)OC(=O)CCCCCCCCCCCCCCC [TG 15:0_16:0_16:0] (ion (formula + adduct): [C50H96O6+NH4] 1+) | – | 311.3 ± 0.14 | 311.5
30 | CCCCC/C=C\C=C/CCCCCCCCC(=O)O[C@H](COC(=O)CCCCCCCCCCCCCCCCC)COP(=O)([O-])OCC[N+](C)(C)C [PC 18:0@_18:2] (ion (formula + adduct): [C44H84NO8P+H] 1+) | – | 292.6 | –
31 | CCCCC/C=C\C[C@H](O)/C=C/C=C\C/C=C\CCCC(=O)O[C@H](COC(=O)CCCCCCCCCCCCCCC)COP(=O)([O-])OCC[N+](C)(C)C [Oxidized PC 16:0_20:4@] (ion (formula + adduct): [C44H80NO9P+H] 1+) | 290.3 | – | –
32 | CCCCC/C=C\C/C=C\C/C=C\C/C=C\CCCCCC(=O)O[C@H](CO/C=C\CCCCCCCCCCCCCC)COP(=O)(O)OCCN [PE P- 16:0@_22:4] (ion (formula + adduct): [C43H78NO7P+H] 1+) | 281.6 | 281.6 | –
